How the values were obtained:
[1] = target: hEBI2 (Homo sapiens, UniProt P32249); assay: luminescent aequorin functional assay, hEBI2 CHO-Aeq (Gqi5) cells; format: cell-based; set-up: expressed in transfected cells; host or cells: CHO-K1 expressing apoaequorin (CHO-Aeq) with Gqi5; line E2
Description: (§1) The human EBI2 was inserted into the pEFIN3 vector at the EcoRI and XbaI sites in the multiple cloning site. Mouse EBI2 was cloned using RT-PCR from mouse genomic DNA and corresponded to the Genbank accession number Q3U6B2. The mouse EBI2 was inserted into the pEFIN3 vector at the EcoRI and XbaI sites in the multiple cloning site. Plasmids expressing human and mouse EBI2 were stably transfected in CHO-K1 and HEK293 cells expressing the apoaequorin (CHO-Aeq and HEK-Aeq) (Table 1). mRNA sequence integrity of EBI2 gene was checked using RT-PCR at T0 & T30 culture times in CHO cells.
hEBI2 CHO-Aeq cell lines were screened in a luminescent aequorin functional assay against proprietary libraries of natural ligands and collection of tissue extracts.
3 oxysterol and 3 vitamin D3 compounds were tested for EBI2 activation in an aequorin assay.

[2] = target: T1, mouse EBI2 receptor (Mus musculus, UniProt Q3U6B2); assay: aequorin assay, mouse EBI2 CHO-Aeq cells; format: cell-based
T1 construct: expressed in transfected cells; host or cells: CHO-K1 expressing apoaequorin (CHO-Aeq), Gqi5 or Gα16 background
T1 sequence (Q3U6B2 whole entry): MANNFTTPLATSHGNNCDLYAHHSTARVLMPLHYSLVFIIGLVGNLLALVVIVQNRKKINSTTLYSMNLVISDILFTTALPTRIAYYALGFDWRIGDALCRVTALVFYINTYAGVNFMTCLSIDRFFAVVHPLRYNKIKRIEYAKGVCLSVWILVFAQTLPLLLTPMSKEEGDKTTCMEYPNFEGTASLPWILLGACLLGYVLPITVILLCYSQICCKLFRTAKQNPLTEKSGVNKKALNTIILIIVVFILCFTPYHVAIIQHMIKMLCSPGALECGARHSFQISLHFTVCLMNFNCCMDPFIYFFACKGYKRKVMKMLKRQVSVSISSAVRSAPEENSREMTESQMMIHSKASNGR
Description: as §1, with “Human EBI2 gene was cloned using RT-PCR from HL-60 cDNA and corresponded to the Genbank accession number NP_004942. The human” for “The human”
We also confirmed activation of hEBI2 by 7b,25DHC in different CHO-Aeq cell backgrounds (Gqi5 and Gα16 (=WTA11)) (FIG. 14). […] Finally, we confirmed activation of hEBI2 by 7b,25DHC with hEBi2-HEK-Aeq Gα16 cells (pCAeqG9) and hEBi2 transiently transfected in HEK T cells (data not shown).

[3] = tested on: bone marrow-derived dendritic cells from EBI2(−/−) mice; assay: chemotaxis assay, EBI2(−/−) dendritic cells; format: cell-based, mouse
Method: (§2) B cells (RS11846 or EBV-infected human B-cells) or murine bone marrow-derived dendritic cells were washed once with medium and resuspended at 1×10^6/ml. 100 μl of this suspension was added into the wells of the filter plate and gently placed into the receiver plate containing 150 μl of a given compound dilution. The final DMSO concentration was less then 0.1%. After migration for 3 hr at 37° C. in an incubator, the filter plate was carefully removed from the receiver plate and discarded. The migrated cells in the receiver plate were resuspended and transferred into round-bottom 96-well plate, centrifuged and resuspended in 100 μl PBS containing 2% FCS and 0.1% NaN3 (FACS buffer). The input cells (100 μl) were similarly processed. For the calculation of the specific migration, a fixed number of beads (10000; Invitrogen #PCB100)) in 20 μl FACS buffer was added and the suspension was analyzed by flow cytometry using a FACS instrument PAS™ (Partec). Cells were identified based on their forward scatter (FSC) and side scatter (SSC) pattern. Chemotaxis is expressed either as total cell number or as percent of input cells.
In order to generate sufficient numbers of dendritic cells (DC) we isolated bone marrow from wild type and EBI2-deficient mice (Deltagen) and treated them in culture for 7-8 days with murine IL4 and murine GM-CSF. […]

[4] = tested on: MAP/ERK signal in parental CHO cell line; assay: Western blot of MAP/ERK phosphorylation, parental CHO cell line without human EBI2; format: cell-based, Chinese hamster; settings: high concentrations
Method: Cells (E2=CHO/AEQ/Gqi5/hEBI2) were seeded at 2×10^5 cell/well in a 12 well plate (TPP #92012) and incubated at 37° C./5% CO2 overnight. The next day medium was removed and cells were starved in serum-free medium for 4 h. Subsequently compound was added for 5 min at RT before cells were lysed (70 ul, 0.5% Triton-X100, 300 mM NaCl, 50 mM Tris pH7.5, Complete™ protease inhibitor cocktail Roche #04693124001). Cell lysates were resolved by gradient SDS-PAGE (NuPage™4-12%, #NP0322Box), transferred by semi-dry blotting to nitrocellulose (Invitrogen, #LC2001) and probed with a phospho p42/44 MAPK (T202/Y204) rabbit mAb (Cell Signalling #4376S). After treatment with a secondary goat anti rabbit-HRP (Pierce #41460) antibody the blots were developed for chemiluminescence (SuperSignal West Dura™, Pierce #34075) and visualized using a BioRad GEL DOC™ imaging system.

[5] = tested on: EBV-infected human B cells; assay: chemotaxis trans well assay; format: cell-based; settings: 3 hr migration
Method: as §2
Human peripheral B lymphocytes (PBL) were prepared from peripheral blood as a cell suspension by centrifugation on Ficoll plaque. PBL were rinsed in PBS and resuspended in complete RPMI 1640 medium (10% FCS and antibiotics) at the concentration of 2×10^7/cell/ml. […]

[6] = tested on: RS11846 cells; assay: chemotaxis 96 transwell assay; format: cell-based; settings: 3 hr migration
Method: as §2

hEBI2, sequence (P32249 whole entry): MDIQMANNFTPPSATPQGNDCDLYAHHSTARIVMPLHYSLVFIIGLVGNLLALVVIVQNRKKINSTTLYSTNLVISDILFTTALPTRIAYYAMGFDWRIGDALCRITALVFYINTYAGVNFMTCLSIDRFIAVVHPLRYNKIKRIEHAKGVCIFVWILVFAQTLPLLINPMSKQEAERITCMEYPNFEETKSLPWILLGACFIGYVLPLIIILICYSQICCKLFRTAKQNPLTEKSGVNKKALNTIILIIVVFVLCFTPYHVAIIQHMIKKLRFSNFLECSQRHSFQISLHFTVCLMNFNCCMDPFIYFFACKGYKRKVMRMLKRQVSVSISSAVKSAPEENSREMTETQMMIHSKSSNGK

| Structure (SMILES) | efficacy compared to the ATP response ([1]; ATP response = endogenous P2Y receptors) | activation of hEBI2 in different CHO-Aeq cell backgrounds ([1]; Gqi5 and Gα16 (=WTA11)) | specificity and selectivity of hEBI2 activation ([1]; compared to WT CHO-AeqGqi5 cells and unrelated GPCRs HCR and GPR23) | activation of mouse EBI2 receptor [2] | migration of DCs from EBI2(−/−) mice towards compound [3] | activation of MAP/ERK signal in control cell line [4] | attraction (migration) of EBV-infected B cells [5] | attraction (migration) of RS11846 cells [6] |
| --- | --- | --- | --- | --- | --- | --- | --- | --- |
| C[C@H](CCCC(C)(C)O)[C@H]1CC[C@H]2[C@@H]3[C@@H](O)C=C4C[C@@H](O)CC[C@]4(C)[C@H]3CC[C@]12C [7b,25DHC, cholest-5-ene-3b,7b,25-triol] | greater than 100% | activation | specifically and selectively activates | activation |  |  |  |  |
| C[C@H](CCCC(C)(C)O)[C@H]1CC[C@H]2[C@@H]3[C@H](O)C=C4C[C@@H](O)CC[C@]4(C)[C@H]3CC[C@]12C [7a,25DHC, cholest-5-ene-3b,7a,25-triol] |  |  |  |  | do not migrate | do not activate | potently attract | potently attract |

From patent US8497075B2, “Methods of identifying a modulator that inhibits the binding between Epstein-Barr virus induced receptor 2 and cholesterol derived ligands” (Novartis AG, priority 2008, dated 2013)
